37 molecules from PubChem BioAssay (NCI) can be followed below.

Test systems include DMS 273 small cell lung; LXFL 529 NSCLC; M19-MEL melanoma; RXF-631 renal; HOP-18 NSCLC; BT-549 breast; HS 578T breast; MDA-N; PC-3 prostate; P388 leukemia; SN12K1 renal.
Assay in all cases: NCI tumour cell line growth inhibition, 48 h

“And” between values parts separate entries of the source, which are not always exact repeats. Identical values can stand only once.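 Compound exposure: 48 hours, 5 concentrations, 96-well plates. At the GI50, growth is halved. TGI denotes the concentration required for complete inhibition of growth.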

Regarding `Cc1cccc(C(C)(C)C)c1NC(=O)C(=O)Cc1nc2ccccc2s1`, the TGI in the assay with DMS 273 small cell lung, in the assay with LXFL 529 NSCLC, in the assay with M19-MEL melanoma, with RXF-631 renal and with HOP-18 NSCLC was over 100 µM each time.
Turning to `Cc1nc2nnc(C)n2c2c1C(=O)Nc1ccccc1N2`, the TGI with DMS 273 small cell lung, with LXFL 529 NSCLC, with M19-MEL melanoma and in the assay on HOP-18 NSCLC was over 100 µM each time.
Turning to `COc1cc2c(c(O)c1C)C(=O)C(Cl)=CC2=O`, the TGI stood at 34.5 µM in the assay with DMS 273 small cell lung; 19.4 µM in the assay on LXFL 529 NSCLC; 20.9 µM with M19-MEL melanoma; 18.4 µM with BT-549 breast; 97.4 µM in the assay on HS 578T breast; 17.6 µM in the assay with RXF-631 renal. In addition, the TGI was determined as 12.1 µM in the assay with MDA-N, 28.7 µM in the assay with PC-3 prostate and 30.1 µM in the assay on HOP-18 NSCLC.
For `CC1(C)N=C(N)N=C(N)N1c1ccc(CCCCc2ccc(S(=O)(=O)F)cc2Cl)c(Cl)c1`, the TGI is 6.36 µM with P388 leukemia; 14.5 µM in the assay with BT-549 breast; over 500 µM with HS 578T breast; 6.92 µM in the assay on SN12K1 renal; 39.5 µM with MDA-N; 112 µM with PC-3 prostate. The molecule further came in with a TGI with HOP-18 NSCLC of 121 µM.
On to `C1CN2N3CCCC23C1` (stereo not drawn), for which the TGI with DMS 273 small cell lung, in the assay on LXFL 529 NSCLC, with M19-MEL melanoma and in the assay on HOP-18 NSCLC was over 100 µM each time.
Regarding `C#CC(C)(C)Oc1cc(O)c2c(=O)c3ccccc3n(C)c2c1`, the TGI in the assay with DMS 273 small cell lung, with LXFL 529 NSCLC, in the assay on RXF-631 renal and in the assay on HOP-18 NSCLC was over 100 µM each time.
As for `CC1CCC[P+](Cc2ccccc2)(c2ccccc2)CC1` (stereo not drawn), the TGI in the assay on DMS 273 small cell lung was over 100 µM; in the assay on LXFL 529 NSCLC, over 100 µM; in the assay on M19-MEL melanoma, over 100 µM; in the assay with RXF-631 renal it was over 100 µM; in the assay with HOP-18 NSCLC it was 13 µM.
For `O=[N+]([O-])c1ccc(NSc2ccccc2)cc1`, the results for the TGI with DMS 273 small cell lung, with LXFL 529 NSCLC and in the assay on HOP-18 NSCLC were 33.7 µM, 70.9 µM and over 100 µM, respectively.
In the case of `C[Si](C)(C)c1ccc(CC2(Cc3ccc([Si](C)(C)C)cc3)CCNC2)cc1`, the TGI stood at 3.42 µM with DMS 273 small cell lung; 4.79 µM in the assay on LXFL 529 NSCLC; 3.64 µM with M19-MEL melanoma; 5.36 µM in the assay on RXF-631 renal; 9.12 µM with HOP-18 NSCLC.
For `CCOC(=O)CCCO`, the TGI with LXFL 529 NSCLC, in the assay with RXF-631 renal and in the assay with HOP-18 NSCLC was over 100 µM each time.
For the molecule `O=C1Oc2cc3c(c4cccc1c24)OCN(c1ccc(Cl)cc1)C3`, the TGI in the assay on DMS 273 small cell lung is over 100 µM; with LXFL 529 NSCLC it was 25 µM; with M19-MEL melanoma it was over 57 µM; in the assay on HOP-18 NSCLC, 91.5 µM.
As for `C[C@]12CCC(=O)C=C1CC[C@@H]1C2CC[C@]2(C)NC(=O)C(C#N)CC12` (stereo partly drawn), the TGI in the assay on DMS 273 small cell lung, with LXFL 529 NSCLC and in the assay with M19-MEL melanoma was over 100 µM each time.
For the molecule `O=S(=O)(O)C(O)/C=C/c1ccccc1` (stereo not drawn), the TGI in the assay on DMS 273 small cell lung, in the assay on LXFL 529 NSCLC, with M19-MEL melanoma and in the assay with HOP-18 NSCLC was over 100 µM throughout.
As for `CN(C)c1ccc(/C=C2\C[N+](C)(C)C/C(=C\c3ccc(N(C)C)cc3)C2=O)cc1`, the TGI was 18.5 µM with DMS 273 small cell lung; 20.4 µM in the assay with LXFL 529 NSCLC; 30.3 µM in the assay with M19-MEL melanoma; 34.3 µM with BT-549 breast; over 100 µM with HS 578T breast; over 100 µM in the assay with HOP-18 NSCLC.
`NC1(CCCCCCCCCCC(=O)O)CNCCNCCNCCNC1` yielded a TGI in the assay with M19-MEL melanoma of over 100 µM.
`O=C(O)c1cc(S(=O)(=O)N=NC=C2c3ccccc3N(O)c3ccccc32)ccc1O`: the TGI in the assay on DMS 273 small cell lung stood at 34.6 µM; in the assay on LXFL 529 NSCLC it was 28.6 µM; in the assay on M19-MEL melanoma, 58.6 µM; in the assay on HOP-18 NSCLC, 85.4 µM.
As for `O=C1NC(=O)C2C(=O)NC(=O)C1C2(c1ccccc1)c1ccc(Cl)cc1` (stereo not drawn), the TGI in the assay on DMS 273 small cell lung, in the assay with LXFL 529 NSCLC and with M19-MEL melanoma was over 100 µM throughout.
Consider `O=C(O)CCCc1ccc(N(CCCl)CCCl)cc1`, for which the GI50 was 3.84 µM in the assay with DMS 273 small cell lung; 19.5 µM in the assay on LXFL 529 NSCLC; 22.3 µM in the assay on M19-MEL melanoma; 19.7 µM with RXF-631 renal; 194 µM in the assay on MDA-N; 210 µM in the assay on PC-3 prostate. Moreover, in the assay on HOP-18 NSCLC, the GI50 was 17.7 µM. Also, the TGI in the assay on DMS 273 small cell lung is 28 µM and 161 µM; in the assay on P388 leukemia, 135 µM; in the assay on LXFL 529 NSCLC it was 35.4 µM and 199 µM; in the assay with M19-MEL melanoma, 51.8 µM and 238 µM; with BT-549 breast it was 290 µM and 289 µM; in the assay with HS 578T breast it was 570 µM and 312 µM. For the same molecule, the TGI in the assay on RXF-631 renal is 47.7 µM and 277 µM; with SN12K1 renal, 238 µM; in the assay on MDA-N, 271 µM and 325 µM; in the assay with PC-3 prostate, 416 µM and 609 µM; in the assay on HOP-18 NSCLC it was > 70 µM and 267 µM.
As for `CC1=C[C@@H]2Cc3occc3C(C)(C)[C@@H]2CC1`, the TGI in the assay on DMS 273 small cell lung is 26.8 µM; with LXFL 529 NSCLC it was over 100 µM; in the assay with M19-MEL melanoma it was 31.2 µM; in the assay with RXF-631 renal, 38.5 µM; in the assay on HOP-18 NSCLC, 54 µM.
For `CC1=CCCC(OC(N)=O)C1` (stereo not drawn) the same measures were over 100 µM, over 100 µM, over 100 µM, over 100 µM and over 100 µM.
Take `COc1cc2c(cc1O)[C@H](Cc1ccc(Oc3cc(C[C@H]4c5cc(OC)c(OC)cc5CCN4C)ccc3OC)cc1)NCC2`: the TGI in the assay with DMS 273 small cell lung amounted to 43.2 µM; in the assay with LXFL 529 NSCLC it was 28.2 µM; with M19-MEL melanoma, 49.2 µM; in the assay on RXF-631 renal it was 32 µM; with HOP-18 NSCLC it was 32.7 µM.
For `CN(C)CCNC(=O)c1cccc2nc3c(Cl)cccc3nc12`, in that order: over 100 µM, over 49.5 µM, 13.1 µM, over 100 µM and over 88 µM.
As for `CC(C)(C)C1=NC(S)NC(CCC(=O)Nc2ccccc2[N+](=O)[O-])=C1` (stereo not drawn), the TGI in the assay on LXFL 529 NSCLC, in the assay on M19-MEL melanoma, with RXF-631 renal and in the assay on HOP-18 NSCLC was over 100 µM in each case.
In the case of `CC(=O)OCCc1cccnc1/C=N/O`, the TGI in the assay with DMS 273 small cell lung, in the assay with LXFL 529 NSCLC, in the assay with M19-MEL melanoma and in the assay with HOP-18 NSCLC was over 100 µM each time.
On to `COC(=O)c1c(OC)cccc1C(=O)O`, for which the TGI with DMS 273 small cell lung, with LXFL 529 NSCLC, in the assay on M19-MEL melanoma, with RXF-631 renal and in the assay with HOP-18 NSCLC was over 100 µM in each case.
Consider `CCCCCCCCCCCCCCC1OC(=O)c2ccccc21` (stereo not drawn), for which the TGI with LXFL 529 NSCLC, in the assay with M19-MEL melanoma, in the assay with RXF-631 renal and in the assay with HOP-18 NSCLC was over 100 µM throughout.
For the molecule `CCCCn1/c(=N/C(=S)N(C)C)ss/c1=N\C(=S)N(C)C`, the TGI with DMS 273 small cell lung, in the assay on LXFL 529 NSCLC, with M19-MEL melanoma and in the assay on HOP-18 NSCLC was over 100 µM in each case.
As to `Cc1c(C(=O)/C=C/c2cccc3ccccc23)[n+](=O)c2ccccc2n1[O-]`, the TGI was determined as 24.5 µM with DMS 273 small cell lung; 20.6 µM in the assay with LXFL 529 NSCLC; 26.4 µM in the assay with M19-MEL melanoma; 56.4 µM with RXF-631 renal; 28.6 µM in the assay with HOP-18 NSCLC.
In the case of `COc1ccc(N=Cc2cc(OC)c(OC)c(OC)c2)cc1`, the GI50 in the assay with DMS 273 small cell lung was 33 µM. Besides, the TGI in the assay on DMS 273 small cell lung, in the assay on LXFL 529 NSCLC, in the assay with M19-MEL melanoma and with HOP-18 NSCLC was over 100 µM in each case.
Regarding `O=C(N/N=C/c1cccc(O)c1O)N/N=C/c1cccc(O)c1O`, the TGI in the assay on DMS 273 small cell lung is 65.2 µM; in the assay with LXFL 529 NSCLC it was over 100 µM; in the assay on M19-MEL melanoma, over 100 µM; with HOP-18 NSCLC, 67.1 µM.
For `OCc1c(-c2cccc3ccccc23)sc(-c2cccc3ccccc23)c1CO`, the TGI is 28.5 µM in the assay with DMS 273 small cell lung; 27.6 µM in the assay with LXFL 529 NSCLC; 29.4 µM in the assay on M19-MEL melanoma; 37.9 µM in the assay with RXF-631 renal; 26.4 µM in the assay with HOP-18 NSCLC.
Regarding `O=C(Nc1ccccc1[N+](=O)[O-])c1ccccc1`, the TGI in the assay on DMS 273 small cell lung, in the assay with LXFL 529 NSCLC, in the assay with M19-MEL melanoma, in the assay on RXF-631 renal and in the assay on HOP-18 NSCLC was over 100 µM in each case.
In the case of `COC(=O)C(CC(=O)c1cc2c(cc1I)OCO2)Cc1cc(OC)c(OC)c(OC)c1I` (stereo not drawn), the TGI in the assay with DMS 273 small cell lung, in the assay on LXFL 529 NSCLC, in the assay on M19-MEL melanoma and in the assay on HOP-18 NSCLC was over 100 µM in each case.
Turning to `C/C(=N\NC(N)=S)c1ccc(C)cc1C`, the TGI with DMS 273 small cell lung, with LXFL 529 NSCLC, with M19-MEL melanoma, in the assay with RXF-631 renal and in the assay with HOP-18 NSCLC was over 100 µM throughout.
`O=C1CC[C@H]2CNC(=O)C[C@H]2C1`: the TGI in the assay with DMS 273 small cell lung, with LXFL 529 NSCLC, in the assay with M19-MEL melanoma and in the assay on RXF-631 renal was over 100 µM each time.
With `O=c1[nH]c(=O)n(C2CC(O)C(CO)O2)cc1C#Cc1c(F)c(F)c(F)c(F)c1F` (stereo not drawn), the TGI in the assay with DMS 273 small cell lung, in the assay on LXFL 529 NSCLC and in the assay with M19-MEL melanoma was over 100 µM throughout.
`CN1CCCNCCN(CCc2ccccn2)CCCN(C)CC1`: the TGI with DMS 273 small cell lung was 81.5 µM; with LXFL 529 NSCLC, over 100 µM; in the assay with M19-MEL melanoma, over 100 µM; in the assay on RXF-631 renal it was over 100 µM; in the assay on HOP-18 NSCLC, over 100 µM.
